Data reported in paper PMC10223454, “Functional Characterization of a New Degradation Peptide BmTX4-P1 from Traditional Chinese Scorpion Medicinal Material” (Toxins, 2023).
Peptide text beside a SMILES is read from it.

Legend:
[1] = system: hKv1.1 channel; experiment: whole-cell patch clamp, hKv1.1 channel currents; format: cell-based, human; details: 1 µM, n ≥ 3
Description: (§1) The source of potassium channel plasmids was described in detail in previous articles. The cDNA encoding hKv1.1 channel, hKv1.3 channel, and rKv4.3 channel were subcloned into the vector of pCDNA3.1(+). The cDNA encoding hKv1.2 channel, hKv1.6 channel, hKv3.2 channel, hERG channel, and mKv4.1 channel were subcloned into the vector of pIRES2-EGFP. The cDNA encoding rKv4.2 was subcloned into the vector of pEGFP-N1.
(§2) DMEM (Gibco, Pittsburgh, PA, USA) with 10% fetal bovine serum and 1% penicillin/streptomycin was applied to culture HEK293T cells in an incubator with 5% CO2 at 37 °C. According to the manufacturer’s instructions, ExFect Transfection Reagent (Vazyme, Nanjing, China) was used to co-transfect the plasmids of pEGFP-N1 and potassium channels into HEK293T cells. Fluorescence-positive cells were selected for electrophysiological experiments after transfection for 12 h to 24 h.
(§3) Whole-cell channel currents were measured and recorded by an EPC-10 patch-clamp amplifier controlled by PatchMaster (HEKA Elektronik, Lambrecht, Germany). The internal patch pipette solution and bath solution were prepared according to the protocol in previously published references. […] The currents of different potassium channels were generated and recorded following the respective protocols according to previously published references. […]

[2] = target: T1, hKv1.2 channel (Homo sapiens, UniProt P16389); experiment: whole-cell patch clamp, hKv1.2 channel currents; format: cell-based; details: for IC50: peak tail current, Hill equation fit
T1 construct: expressed in transfected cells
Description: as §1, §2
(§4) Whole-cell channel currents were measured and recorded by an EPC-10 patch-clamp amplifier controlled by PatchMaster (HEKA Elektronik, Lambrecht, Germany). The internal patch pipette solution and bath solution were prepared according to the protocol in previously published references. Bath solution with 0.01% BSA (Gibco, Pittsburgh, PA, USA) was used to dissolve peptides for electrophysiological testing. The external recording bath solution was exchanged by the MPS-2 multichannel microperfusion system (INBIO Inc., Wuhan, China). The currents of different potassium channels were generated and recorded following the respective protocols according to previously published references. The results of the electrophysiological experiment are presented as the mean ± SE, and more than three cells from each sample were examined (n ≥ 3).
(§5) The software of Clampfit (Molecular Devices, Sunnyvale, CA, USA) and Sigmaplot (IBM SPSS, Chicago, IL, USA) were applied to analyze the electrophysiological data. In order to obtain IC50 values, the concentrations of peptides and currents of potassium channels were used to fit the modified Hill equation for dose–response relationships: Ipeptide/Icontrol = 1/[1 + Cpeptide/IC50], in which Ipeptide and Icontrol represent the peak tail current of potassium channels in the presence and absence of peptide, Cpeptide represents the concentration of peptides and IC50 represents the half-maximum inhibition concentration. The results are presented as the mean ± SE.

[3] = target: T2, hKv1.3 channel (Homo sapiens, UniProt P22001); experiment: whole-cell patch clamp, hKv1.3 channel currents; format: cell-based; details: for IC50: peak tail current, Hill equation fit
T2 construct: expressed in transfected cells
Description: as §1, §2, §4, §5

[4] = system: rKv4.2 channel; experiment: whole-cell patch clamp, rKv4.2 channel currents; format: cell-based, rat; details: 1 µM, transiently transfected HEK293 cells, mean ± SE, n ≥ 3
Description: as §1, §2, §3

[5] = system: mKv4.3 channel; experiment: whole-cell patch clamp, mKv4.3 channel currents; format: cell-based, mouse; details: 1 µM, transiently transfected HEK293 cells, mean ± SE, n ≥ 3
[6] = system: hKv1.6 channel; experiment: whole-cell patch clamp, hKv1.6 channel currents; format: cell-based, human; details: 1 µM, transiently transfected HEK293 cells, mean ± SE, n ≥ 3
Description: as §1, §2, §3

[7] = system: hKv3.2 channel; experiment: whole-cell patch clamp, hKv3.2 channel currents; format: cell-based, human; details: 1 µM, transiently transfected HEK293 cells, mean ± SE, n ≥ 3
Description: as §1, §2, §3

[8] = system: hERG channel; experiment: in vitro; format: cell-based; details: human, whole-cell patch clamp, transiently transfected HEK293 cells, mean ± SE, n ≥ 3, read-out: inhibition of hERG channel currents
Description: as §1, §2, §3

[9] = system: rKv4.1 channel; experiment: whole-cell patch clamp, rKv4.1 channel currents; format: cell-based, rat; details: 1 µM, transiently transfected HEK293 cells, mean ± SE, n ≥ 3
[10] = 1 µM, transiently transfected HEK293 cells, mean ± SE, n ≥ 3

T1 sequence (P16389 whole entry): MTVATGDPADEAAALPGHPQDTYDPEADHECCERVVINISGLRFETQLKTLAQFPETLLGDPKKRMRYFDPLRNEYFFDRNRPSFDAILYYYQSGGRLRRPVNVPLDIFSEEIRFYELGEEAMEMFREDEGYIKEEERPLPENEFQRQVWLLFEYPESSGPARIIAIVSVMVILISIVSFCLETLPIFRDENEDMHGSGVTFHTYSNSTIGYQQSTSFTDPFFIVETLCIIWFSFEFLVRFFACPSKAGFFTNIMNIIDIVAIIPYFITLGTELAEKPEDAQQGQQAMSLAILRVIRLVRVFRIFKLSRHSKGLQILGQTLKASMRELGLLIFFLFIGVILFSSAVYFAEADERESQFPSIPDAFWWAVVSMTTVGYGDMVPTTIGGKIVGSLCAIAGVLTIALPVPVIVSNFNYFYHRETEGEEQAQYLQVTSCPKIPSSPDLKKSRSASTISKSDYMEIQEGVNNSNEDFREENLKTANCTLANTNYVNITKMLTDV
T2 sequence (P22001 whole entry): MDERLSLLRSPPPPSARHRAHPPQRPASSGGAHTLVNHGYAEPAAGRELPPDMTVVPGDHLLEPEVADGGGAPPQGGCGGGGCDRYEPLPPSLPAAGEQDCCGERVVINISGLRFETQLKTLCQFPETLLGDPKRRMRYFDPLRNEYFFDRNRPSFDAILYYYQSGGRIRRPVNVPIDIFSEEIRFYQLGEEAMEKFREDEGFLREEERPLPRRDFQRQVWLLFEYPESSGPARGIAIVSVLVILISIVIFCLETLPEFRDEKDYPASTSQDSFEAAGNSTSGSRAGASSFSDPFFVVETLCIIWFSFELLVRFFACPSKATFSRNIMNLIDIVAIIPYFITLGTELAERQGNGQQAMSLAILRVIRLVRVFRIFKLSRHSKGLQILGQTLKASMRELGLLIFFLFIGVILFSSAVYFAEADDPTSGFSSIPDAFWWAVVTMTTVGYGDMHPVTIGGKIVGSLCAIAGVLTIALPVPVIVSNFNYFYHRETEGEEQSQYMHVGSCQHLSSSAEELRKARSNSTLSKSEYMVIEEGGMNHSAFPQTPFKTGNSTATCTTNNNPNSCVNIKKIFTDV

SMILES	effect on hKv1.1 channel current (in words) [1]	inhibition of hKv1.2 channel current (in words) ([2]; 1 µM)	IC50 ([2]; mean ± SE, n ≥ 3)	inhibition of hKv1.3 channel current (in words) ([3]; 1 µM)	IC50 ([3]; mean ± SE, n ≥ 3)	inhibition of hKv1.1 channel currents ([1]; transiently transfected HEK293 cells, mean ± SE)	inhibition of rKv4.2 channel currents [4]	inhibition of mKv4.3 channel currents [5]	inhibition of hKv1.6 channel currents [6]	inhibition of hKv3.2 channel currents [7]	inhibition at 1 µM [8]	inhibition at 0.008 µM ([2]; 8 nM, mean ± SE, n ≥ 3, read-out: inhibition rate of hKv1.2 channel current)	inhibition at 0.04 µM ([2]; 40 nM, mean ± SE, n ≥ 3, read-out: inhibition rate of hKv1.2 channel current)	inhibition at 0.2 µM ([2]; 200 nM, mean ± SE, n ≥ 3, read-out: inhibition rate of hKv1.2 channel current)	inhibition at 1 µM [2, 10]	inhibition of rKv4.1 channel currents [9]	inhibition at 0.008 µM ([3]; 8 nM, mean ± SE, n ≥ 3, read-out: inhibition rate of hKv1.3 channel current)	inhibition at 0.04 µM ([3]; 40 nM, mean ± SE, n ≥ 3, read-out: inhibition rate of hKv1.3 channel current)	inhibition at 0.2 µM ([3]; 200 nM, mean ± SE, n ≥ 3, read-out: inhibition rate of hKv1.3 channel current)	inhibition at 1 µM [3, 10]
CSCC[C@@H]1NC(=O)[C@@H]2CSSC[C@H](NC(=O)[C@@H](N)CCCCN)C(=O)N[C@@H]([C@@H](C)O)C(=O)N[C@@H](C)C(=O)N[C@@H](CO)C(=O)N[C@@H](CCCCN)C(=O)N[C@@H](CCC(N)=O)C(=O)N[C@H]3CSSC[C@H](NC(=O)[C@H](CCCCN)NC(=O)CNC(=O)[C@H](CC(N)=O)NC1=O)C(=O)N[C@@H](CCCNC(=N)N)C(=O)N[C@H](C(=O)N[C@@H](Cc1ccc(O)cc1)C(=O)O)CSSC[C@H](NC(=O)[C@H](C(C)C)NC(=O)[C@@H]1CCCN1C(=O)[C@H](Cc1c[nH]c4ccccc14)NC3=O)C(=O)N[C@@H](CCCCN)C(=O)N[C@@H](CCC(N)=O)C(=O)N[C@@H](CCSC)C(=O)N[C@@H](Cc1ccccc1)C(=O)NCC(=O)N[C@@H](CCCCN)C(=O)N1CCC[C@H]1C(=O)N[C@@H](CC(N)=O)C(=O)NCC(=O)N[C@@H](CCCCN)C(=O)N2 [rBmTX4-P1] (HELM PEPTIDE1{K.C.T.A.S.K.Q.C.W.P.V.C.K.Q.M.F.G.K.P.N.G.K.C.M.N.G.K.C.R.C.Y}$PEPTIDE1,PEPTIDE1,2:R3-23:R3|PEPTIDE1,PEPTIDE1,8:R3-28:R3|PEPTIDE1,PEPTIDE1,12:R3-30:R3$$$V2.0; C-terminus assumed; bridges inferred)	hardly inhibited the hKv1.1 channel current	inhibited the currents of the hKv1.2 and hKv1.3 channels with high affinities	45.7 ± 9.2 nM	inhibited the currents of the hKv1.2 and hKv1.3 channels with high affinities	247 ± 47.9 nM	–	–	–	–	–	–	–	–	–	–	–	–	–	–	–
CSCC[C@@H]1NC(=O)[C@@H]2CSSC[C@H](NC(=O)[C@@H](N)CCCCN)C(=O)N[C@@H]([C@@H](C)O)C(=O)N[C@@H](C)C(=O)N[C@@H](CO)C(=O)N[C@@H](CCCCN)C(=O)N[C@@H](CCC(N)=O)C(=O)N[C@H]3CSSC[C@H](NC(=O)[C@H](CCCCN)NC(=O)CNC(=O)[C@H](CC(N)=O)NC1=O)C(=O)N[C@@H](CCCNC(=N)N)C(=O)N[C@H](C(=O)N[C@@H](Cc1ccc(O)cc1)C(=O)O)CSSC[C@H](NC(=O)[C@H](C(C)C)NC(=O)[C@@H]1CCCN1C(=O)[C@H](Cc1c[nH]c4ccccc14)NC3=O)C(=O)N[C@@H](CCCCN)C(=O)N[C@@H](CCC(N)=O)C(=O)N[C@@H](CCSC)C(=O)N[C@@H](Cc1ccccc1)C(=O)NCC(=O)N[C@@H](CCCCN)C(=O)N1CCC[C@H]1C(=O)N[C@@H](CC(N)=O)C(=O)NCC(=O)N[C@@H](CCCCN)C(=O)N2 [sBmTX4-P1] (HELM PEPTIDE1{K.C.T.A.S.K.Q.C.W.P.V.C.K.Q.M.F.G.K.P.N.G.K.C.M.N.G.K.C.R.C.Y}$PEPTIDE1,PEPTIDE1,2:R3-23:R3|PEPTIDE1,PEPTIDE1,8:R3-28:R3|PEPTIDE1,PEPTIDE1,12:R3-30:R3$$$V2.0; N-terminus and C-terminus assumed; bridges inferred)	–	–	74.7 ± 7 nM	–	124 ± 26.7 nM	5.9 ± 1.5%	6.9 ± 4.6%	6.8 ± 2.8%	18.3 ± 4.3%	5.3 ± 3.1%	35.7 ± 2.1%	13.5 ± 1.6%	40.2 ± 3.7%	66 ± 6.3%	88.4 ± 2%	7.0 ± 1.8%	13.6 ± 3.7%	32.6 ± 5.3%	60.7 ± 2.9%	73.1 ± 2.8%
